According to ChEMBL document CHEMBL1201862, “PubChem BioAssay data set” (2004):
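Cultured in 96-well plates, cells were exposed to test compound for 48 hours across five concentrations. Here, GI50 denotes the concentration required for 50% inhibition of growth.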 Active and inactive are the calls of the source. Rule as the data show it: active = GI50 up to about 1.1 µM and inactive = higher.

Assays:
Test in all cases: inhibition of tumour cell growth, NCI panel, 48 h
SNB-78 = tested on: SNB-78
M19-MEL = tested on: M19-MEL
DLD-1 = tested on: DLD-1
XF498 = tested on: XF498
HOP-18 = tested on: HOP-18
MDA-N = tested on: MDA-N
BT-549 = tested on: BT-549
KM-20L2 = tested on: KM-20L2
RXF 631 = tested on: RXF 631

O=C(NN1C(=O)C(Cl)C1c1ccc(O)cc1)c1ccccc1O (configuration not stated)
GI50 (SNB-78): 21.7 µM (inactive) | GI50 (M19-MEL): 21.7 µM (inactive) | GI50 (DLD-1): 15.8 µM (inactive) | GI50 (XF498): 11.1 µM (inactive) | GI50 (HOP-18): 15.9 µM (inactive)

CCN(CC)c1ccc2cc(C(N)=O)c(=N)oc2c1
GI50 (MDA-N): 38.2 µM (inactive) | GI50 (BT-549): 52.5 µM (inactive)

O=Nc1ccc(O)c2ncccc12
GI50 (MDA-N): 1.75 µM (inactive) | GI50 (KM-20L2): 23.9 µM (inactive) | GI50 (SNB-78): 2.43 µM (inactive) | GI50 (M19-MEL): 4.25 µM (inactive) | GI50 (DLD-1): 9.57 µM (inactive) | GI50 (HOP-18): 11.3 µM (inactive) | GI50 (BT-549): 10.5 µM (inactive)

O=C1C=C(O)c2nc(O)ccc2C1=O
GI50 (KM-20L2): > 100 µM (inactive) | GI50 (SNB-78): > 100 µM (inactive) | GI50 (M19-MEL): > 100 µM (inactive) | GI50 (DLD-1): > 100 µM (inactive) | GI50 (XF498): > 100 µM (inactive)

COc1ccccc1NCc1nnc(CCCCCCCCc2nnc(CNc3ccccc3OC)o2)o1
GI50 (MDA-N): > 100 µM (inactive) | GI50 (BT-549): > 100 µM (inactive)

Cc1ccc(NC(=O)C(=O)C(C#N)c2ccccc2C)cc1C (configuration not stated)
GI50 (KM-20L2): > 79.8 µM (inactive) | GI50 (SNB-78): > 100 µM (inactive) | GI50 (DLD-1): 52.4 µM (inactive) | GI50 (XF498): > 100 µM (inactive) | GI50 (HOP-18): > 100 µM (inactive)

Cc1cc(C)[n+]2c(c1)C=CC2.[O-][Cl+3]([O-])([O-])[O-]
GI50 (KM-20L2): 21.3 µM (inactive) | GI50 (SNB-78): 21.2 µM (inactive) | GI50 (M19-MEL): 21.2 µM (inactive) | GI50 (DLD-1): 10.7 µM (inactive)

COc1ccc(CC#C/C=C/C(=O)NCC(C)C)cc1
GI50 (KM-20L2): > 100 µM (inactive) | GI50 (SNB-78): > 100 µM (inactive) | GI50 (M19-MEL): > 100 µM (inactive) | GI50 (DLD-1): > 100 µM (inactive) | GI50 (XF498): > 100 µM (inactive) | GI50 (HOP-18): > 100 µM (inactive)

O=C1CC2(CCN(Cc3ccccc3)CC2)C(=O)N1N1CCCCC1
GI50 (MDA-N): > 100 µM (inactive) | GI50 (BT-549): > 100 µM (inactive)

C=CC(CBr)CCC(Br)C(C)(C)Br (configuration not stated)
GI50 (MDA-N): > 10 µM (inactive) | GI50 (BT-549): > 10 µM (inactive)

CC(=N/NC(=S)Nc1c(C)n(C)n(-c2ccccc2)c1=O)/C(C)=N\NC(=S)Nc1c(C)n(C)n(-c2ccccc2)c1=O
GI50 (BT-549): > 100 µM (inactive)

CCOC(=O)C1(C(C)=O)OC(=O)c2cnccc21 (configuration not stated)
GI50 (MDA-N): > 100 µM (inactive) | GI50 (BT-549): > 100 µM (inactive)

CN(C)/N=C(/CC(O)(C(F)(F)F)C(F)(F)F)c1ccc([N+](=O)[O-])cc1
GI50 (MDA-N): > 100 µM (inactive)

O=C(c1ccco1)N(C(=O)N1CCN(c2ccccc2)CC1)S(=O)(=O)c1ccccc1
GI50 (MDA-N): 22.5 µM (inactive) | GI50 (BT-549): 32.7 µM (inactive)

COC(=O)C1C(OS(=O)(=O)O)CCC2CN3CCc4c([nH]c5ccccc45)C3CC21 (configuration not stated)
GI50 (MDA-N): > 100 µM (inactive) | GI50 (BT-549): > 100 µM (inactive)

C/C(CC1SCCCS1)=C(/C)CC1SCCCS1
GI50 (MDA-N): > 100 µM (inactive)

O=C(O)c1nn[nH]c1S
GI50 (MDA-N): > 100 µM (inactive)

COC(=O)CCC(=O)NC1=C(Nc2ccccc2)C(=O)c2ccccc2C1=O
GI50 (MDA-N): 2.04 µM (inactive) | GI50 (BT-549): 10.6 µM (inactive)

CC(C)(C)C(=O)OCC1CCC[N+]2(C)CCCCC12 (configuration not stated)
GI50 (MDA-N): > 100 µM (inactive) | GI50 (BT-549): > 100 µM (inactive)

CC(=O)Nc1ccc(C(=O)N2N=C(C)/C(=C/c3ccc(O)cc3)C2=O)cc1
GI50 (SNB-78): > 100 µM (inactive) | GI50 (M19-MEL): > 100 µM (inactive) | GI50 (DLD-1): > 100 µM (inactive) | GI50 (XF498): > 100 µM (inactive)

CC(=O)OC1COC(N2C(=O)C(=O)c3ccccc32)C(OC(C)=O)C1OC(C)=O (configuration not stated)
GI50 (KM-20L2): > 100 µM (inactive) | GI50 (SNB-78): > 100 µM (inactive) | GI50 (M19-MEL): 34.8 µM (inactive) | GI50 (DLD-1): > 100 µM (inactive) | GI50 (RXF 631): > 100 µM (inactive)

CC1CC(=O)Nc2nc3ccccc3n21 (configuration not stated)
GI50 (MDA-N): > 100 µM (inactive) | GI50 (BT-549): > 100 µM (inactive)

CCC1(CC)CC(=NNS(=O)(=O)c2ccc(C)cc2)C1
GI50 (MDA-N): > 100 µM (inactive) | GI50 (BT-549): > 100 µM (inactive)

O=c1c2nc(-c3ccccc3)oc2n(-c2ccccc2)c(=O)n1-c1ccccc1
GI50 (MDA-N): > 46.5 µM (inactive) | GI50 (BT-549): 28.4 µM (inactive)

COc1ccc2cc1Oc1ccc(cc1)C(Sc1ccccc1)CCOC(=O)CC2 (configuration not stated)
GI50 (MDA-N): > 100 µM (inactive) | GI50 (BT-549): > 100 µM (inactive)

COc1cc(S(=O)(=O)Nc2ccc(-c3csc(/N=C\c4cccc(Oc5ccccc5)c4)n3)cc2)ccc1Cl
GI50 (BT-549): 32.7 µM (inactive)

C=CC(OC(=O)C(C)C)c1ccc(OC(=O)C(C)C)cc1 (configuration not stated)
GI50 (MDA-N): 12.5 µM (inactive) | GI50 (BT-549): 17.4 µM (inactive)

CCCN(CCC)C1=Nc2ccccc2-n2cnnc2C1
GI50 (KM-20L2): > 100 µM (inactive) | GI50 (SNB-78): > 100 µM (inactive) | GI50 (M19-MEL): > 100 µM (inactive) | GI50 (XF498): > 100 µM (inactive)

CN(C)c1nc(N(C)C)sc(=O)n1
GI50 (KM-20L2): > 100 µM (inactive) | GI50 (M19-MEL): > 100 µM (inactive) | GI50 (DLD-1): > 100 µM (inactive) | GI50 (XF498): > 100 µM (inactive) | GI50 (HOP-18): > 100 µM (inactive)

c1ccc(P2c3ccccc3Nc3ccccc32)cc1
GI50 (MDA-N): 91 µM (inactive)

COc1ccc(C2=NN(C(=O)c3ccc(Cl)cc3)C(O)(c3cc(F)c(Cl)cc3Cl)C2)cc1 (configuration not stated)
GI50 (MDA-N): 22.4 µM (inactive) | GI50 (BT-549): > 100 µM (inactive)

CC(=O)OCc1cccc(O)c1C(=O)CCC=C(C)C
GI50 (MDA-N): > 100 µM (inactive)
